16 molecules from patent US20250388605A1, “HETEROBIFUNCTIONAL COMPOUNDS AND METHODS OF TREATING DISEASE” (Halda Therapeutics OpCo, Inc., priority 2022, published 2025) can be followed below.

One assay deals with T1, BRD4-BD2 (Homo sapiens, UniProt O60885).
T1 construct: made in house; host or cells: T7 phage grown in an E. coli host derived from the BL21 strain
The assay is described as follows: Binding affinity to BRD4-BD2 (bromoKdELECT assay). Particulars: 11-point 3-fold dilution series.

Assay [1] concerns T-Rex 293 cell line SC3 cells having increased expression of androgen receptor protein due to exposure to doxycycline. The assay is described as follows: Cellular growth inhibition, T-Rex 293 SC3 cells with doxycycline (increased androgen receptor expression), CellTiter-Glo. Format: cell-based. The note with it: T-Rex 293 SC3 cells with 10 ng/mL doxycycline (increased androgen receptor expression), 72 hours, CellTiter-Glo 2.0. A digest of the protocol:
(§1)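 Growth inhibition is measured in an inducible AR-expressing T-Rex 293 clone, SC3, cultured with or without 10 ng/mL doxycycline in hormone-depleted medium. Test compounds are applied for 72 hours. GI50 values derive from CellTiter-Glo 2.0 signal fitted by four-parameter regression.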
(In general: ATP-based viability assays read luminescence as a measure of living cells.)

Assay [2] concerns T-Rex 293 cell line SC3 cells lacking increased expression of androgen receptor protein. The assay is described as follows: Cellular growth inhibition, T-Rex 293 SC3 cells without doxycycline (no increased androgen receptor expression), CellTiter-Glo. The note with it: T-Rex 293 SC3 cells not exposed to doxycycline (no increased androgen receptor expression), 72 hours. The assay is classed as cell-based. A digest of the protocol:
as §1

As usually defined, the Kd is the constant that tells how readily two partners part at equilibrium. Low values mean a tighter complex, high ones a looser complex. One may read the GI50 as the concentration at which growth is held to half of that of the control. `Cn1cc(-c2ccccc2Oc2cccc(OCCOC3CCN(c4ncc(C(=O)N[C@H]5C(C)(C)[C@H](Oc6ccc(C#N)c(Cl)c6)C5(C)C)cn4)CC3)c2)c2cc[nH]c2c1=O` [Compound I-61, N-((1r, 3r)-3-(3-chloro-4-cyanophenoxy)-2,2,4,4-tetramethylcyclobutyl)-2-(4-(2-(3-(2-(6-methyl-7-oxo-6,7-dihydro-1H-pyrrolo[2,3-c]pyridin-4-yl)phenoxy)phenoxy)ethoxy)piperidin-1-yl)pyrimidine-5-carboxamide] showed a Kd on BRD4-BD2 of over 2500 nM. The GI50 in assay [1] was under 500 nM; in assay [2], 1500 to 3000 nM.
In the same order, the values of `Cn1cc(-c2cc(N)ccc2Oc2cccc(OCCOC3CCN(c4ncc(C(=O)N[C@H]5C(C)(C)[C@H](Oc6ccc(C#N)c(Cl)c6)C5(C)C)cn4)CC3)c2)c2cc[nH]c2c1=O` [Compound I-62, 2-(4-(2-(3-(4-amino-2-(6-methyl-7-oxo-6,7-dihydro-1H-pyrrolo[2,3-c]pyridin-4-yl)phenoxy)phenoxy)ethoxy)piperidin-1-yl)-N-((1r, 3r)-3-(3-chloro-4-cyanophenoxy)-2,2,4,4-tetramethylcyclobutyl)pyrimidine-5-carboxamide] are over 2500 nM, under 500 nM and over 3000 nM.
In the same order, the values of `CCS(=O)(=O)Nc1ccc(Oc2ccc(F)c(OCCOC3CCN(c4ncc(C(=O)N[C@H]5C(C)(C)[C@H](Oc6ccc(C#N)c(Cl)c6)C5(C)C)cn4)CC3)c2F)c(-c2cn(C)c(=O)c3[nH]ccc23)c1` [Compound I-65] are under 50 nM, under 500 nM and under 500 nM.
For `CCS(=O)(=O)Nc1ccc(Oc2cccc(N3CC(N4CCN(c5ncc(C(=O)N[C@H]6C(C)(C)[C@H](Oc7ccc(C#N)c(Cl)c7)C6(C)C)cn5)CC4)C3)c2)c(-c2cn(C)c(=O)c3[nH]ccc23)c1` [Compound I-75], in that order: 50 to 500 nM, under 500 nM and under 500 nM.
As for `CCS(=O)(=O)Nc1ccc(Oc2cccc(N3CC(OC4CCN(c5ncc(C(=O)N[C@H]6C(C)(C)[C@H](Oc7ccc(C#N)c(Cl)c7)C6(C)C)cn5)CC4)C3)c2)c(-c2cn(C)c(=O)c3[nH]ccc23)c1` [Compound I-80], on BRD4-BD2, the Kd lay in the range of 50 to 500 nM. Moreover, the GI50 in assay [1] and in assay [2] was under 500 nM each time.
Molecule `CCS(=O)(=O)Nc1ccc(Oc2cccc(NCCOC3CCN(c4ncc(C(=O)N[C@H]5C(C)(C)[C@H](Oc6ccc(C#N)c(Cl)c6)C5(C)C)cn4)CC3)c2)c(-c2cn(C)c(=O)c3[nH]ccc23)c1` [Compound I-84] came in with a dissociation constant Kd on BRD4-BD2 of under 50 nM. Besides, the GI50 in assay [1] and in assay [2] was under 500 nM each time.
Take `CN(c1ccc(Oc2cccc(N3CC(N4CCN(c5ncc(C(=O)N[C@H]6C(C)(C)[C@H](Oc7ccc(C#N)c(Cl)c7)C6(C)C)cn5)CC4)C3)c2)c(-c2cn(C)c(=O)c3[nH]ccc23)c1)S(=O)(=O)C1CC1` [Compound I-88, N-((1r, 3r)-3-(3-chloro-4-cyanophenoxy)-2,2,4,4-tetramethylcyclobutyl)-2-(4-(1-(3-(2-(6-methyl-7-oxo-6,7-dihydro-1H-pyrrolo[2,3-c]pyridin-4-yl)-4-(N-methylcyclopropanesulfonamido)phenoxy)phenyl)azetidin-3-yl)piperazin-1-yl)pyrimidine-5-carboxamide]: at BRD4-BD2, the dissociation constant (Kd) is 50 to 500 nM. Moreover, the GI50 is under 500 nM in assay [1] and over 3000 nM in assay [2].
For `Cn1cc(-c2ccccc2Oc2cccc(N3CC(N4CCN(c5ncc(C(=O)N[C@H]6C(C)(C)[C@H](Oc7ccc(C#N)c(Cl)c7)C6(C)C)cn5)CC4)C3)c2)c2cc[nH]c2c1=O` [Compound I-90, N-((1r, 3r)-3-(3-chloro-4-cyanophenoxy)-2,2,4,4-tetramethylcyclobutyl)-2-(4-(1-(3-(2-(6-methyl-7-oxo-6,7-dihydro-1H-pyrrolo[2,3-c]pyridin-4-yl)phenoxy)phenyl)azetidin-3-yl)piperazin-1-yl)pyrimidine-5-carboxamide], in that order: over 2500 nM, under 500 nM and over 3000 nM.
For `CN(c1ccc(Oc2cccc(N3CC(N4CCN(c5ncc(C(=O)N[C@H]6C(C)(C)[C@H](Oc7ccc(C#N)c(Cl)c7)C6(C)C)cn5)CC4)C3)c2F)c(-c2cn(C)c(=O)c3[nH]ccc23)c1)S(=O)(=O)C1CC1` [Compound I-91], in that order: under 50 nM, under 500 nM and over 3000 nM.
In the same order, the values of `Cn1cc(-c2cc(C(C)(C)O)ccc2Oc2cccc(N3CC(N4CCN(c5ncc(C(=O)N[C@H]6C(C)(C)[C@H](Oc7ccc(C#N)c(Cl)c7)C6(C)C)cn5)CC4)C3)c2F)c2cc[nH]c2c1=O` [Compound I-92, N-((1r, 3r)-3-(3-chloro-4-cyanophenoxy)-2,2,4,4-tetramethylcyclobutyl)-2-(4-(1-(2-fluoro-3-(4-(2-hydroxypropan-2-yl)-2-(6-methyl-7-oxo-6,7-dihydro-1H-pyrrolo[2,3-c]pyridin-4-yl)phenoxy)phenyl)azetidin-3-yl)piperazin-1-yl)pyrimidine-5-carboxamide] are 50 to 500 nM, under 500 nM and under 500 nM.
`Cn1cc(-c2ccccc2Oc2cccc(N3CC(N4CCN(c5ncc(C(=O)N[C@H]6C(C)(C)[C@H](Oc7ccc(C#N)c(Cl)c7)C6(C)C)cn5)CC4)C3)c2F)c2cc[nH]c2c1=O` [Compound I-94]: the Kd at BRD4-BD2 lay in the range of 50 to 500 nM. Moreover, the GI50 in assay [1] was under 500 nM; in assay [2], over 3000 nM.
In the same order, the values of `Cn1cc(-c2cc(C(C)(C)O)ccc2Oc2cccc(OCCN3CCN(c4ncc(C(=O)N[C@H]5C(C)(C)[C@H](Oc6ccc(C#N)c(Cl)c6)C5(C)C)cn4)CC3)c2)c2cc[nH]c2c1=O` [Compound I-96] are 50 to 500 nM, under 500 nM and under 500 nM.
For `Cn1cc(-c2ccccc2Oc2cccc(OCCN3CCN(c4ncc(C(=O)N[C@H]5C(C)(C)[C@H](Oc6ccc(C#N)c(Cl)c6)C5(C)C)cn4)CC3)c2)c2cc[nH]c2c1=O` [Compound I-98], in that order: over 2500 nM, under 500 nM and 500 to 1500 nM.
For `Cn1cc(-c2cc(C(C)(C)O)ccc2Oc2cccc(OCCN3CCN(c4ncc(C(=O)N[C@H]5C(C)(C)[C@H](Oc6ccc(C#N)c(Cl)c6)C5(C)C)cn4)CC3)c2F)c2cc[nH]c2c1=O` [Compound I-99], in that order: under 50 nM, under 500 nM and under 500 nM.
Consider `Cn1cc(-c2cc(C(C)(C)O)ccc2Oc2cccc(N3CC(N4CCN(c5ncc(C(=O)N[C@H]6C(C)(C)[C@H](Oc7ccc(C#N)c(Cl)c7)C6(C)C)cn5)CC4)C3)c2)c2cc[nH]c2c1=O` [Compound I-105], for which the Kd at BRD4-BD2 was under 50 nM. Further, the GI50 in assay [1] and in assay [2] was under 500 nM in each case.
Regarding `CC(C)c1ccc(Oc2cccc(OCCN3CCN(c4ncc(C(=O)NC5C(C)(C)C(Oc6ccc(C#N)c(Cl)c6)C5(C)C)cn4)CC3)c2)c(-c2cn(C)c(=O)c3[nH]ccc23)c1` (stereo not drawn) [Compound I-107, N-[3-(3-chloro-4-cyano-phenoxy)-2,2,4,4-tetramethyl-cyclobutyl]-2-[4-[2-[3-[4-isopropyl-2-(6-methyl-7-oxo-1H-pyrrolo[2,3-c]pyridin-4-yl)phenoxy]phenoxy]ethyl]piperazin-1-yl]pyrimidine-5-carboxamide], the Kd on BRD4-BD2 was in the range of 50 to 500 nM. Besides, the GI50 in assay [1] was under 500 nM; in assay [2] it was over 3000 nM.
